Experimental data: patent US20110086834A1, “ALKYNYL ALCOHOLS AS KINASE INHIBITORS” (AMGEN INC., priority 2008, published 2011)

Biological target: T1, NIK (Homo sapiens, UniProt Q99558)
T1 construct: Both assays utilize a truncated form of NIK containing only the catalytic domain; made in house; host or cells: baculovirus expression system (insect cells implied)
Experiment: homogenous time resolved fluorescence (HTRF) assay for NIK Ki measurement
Assay type: biochemical
Conditions: truncated NIK (catalytic domain only), autophosphorylation; 10 nM enzyme; 20, 100, 200 or 500 μM ATP; room temperature, 2 hours; read-out: Ki activity in the homogenous time resolved fluorescence (HTRF) assay for NIK

T1 sequence (Q99558 400-655 limits assumed): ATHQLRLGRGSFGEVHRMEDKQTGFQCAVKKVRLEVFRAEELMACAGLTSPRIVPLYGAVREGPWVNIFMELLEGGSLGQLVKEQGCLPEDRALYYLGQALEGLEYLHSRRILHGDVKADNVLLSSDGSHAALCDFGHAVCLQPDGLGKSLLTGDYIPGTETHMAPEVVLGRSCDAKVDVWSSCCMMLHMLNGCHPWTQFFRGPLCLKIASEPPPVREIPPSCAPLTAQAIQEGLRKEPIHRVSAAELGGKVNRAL

**Q.** For `COCCOc1cnc(N)nc1-c1c[nH]c2ccc(C#CC3(O)CCC3)cc12` [Example 225, 1-((3-(2-Amino-5-(2-methoxyethoxy)-4-pyrimidinyl)-1H-indol-5-yl)ethynyl)cyclobutanol], which Ki is on record?
**A.** < 1 µM

**Q.** How did the Ki turn out when `CN1CC[C@]2(C1)CN(c1nc(N)ncc1Cl)c1cc(C#C[C@@](C)(O)c3nccs3)ccc12` (relative stereo) [Example 197, (2R)-4-((3S*)-1-(2-Amino-5-chloro-4-pyrimidinyl)-1′-methyl-1,2-dihydrospiro[indole-3,3′-pyrrolidin]-6-yl)-2-(1,3-thiazol-2-yl)-3-butyn-2-ol] was run?
**A.** < 1 µM

**Q.** For `CC(O)(C#Cc1ccc2c(c1)N(c1nc(N)ncc1Cl)CC21CCCC1)c1ncco1` (stereo not drawn) [Example 319, 4-(1′-(2-Amino-5-chloro-4-pyrimidinyl)-1′,2′-dihydrospiro[cyclopentane-1,3′-indol]-6′-yl)-2-(1,3-oxazol-2-yl)-3-butyn-2-ol], which Ki is on record?
**A.** < 1 µM

**Q.** How did the Ki turn out when `CC(O)(C#Cc1ccc2c(c1)N(c1ccnc(N)n1)CC2)c1ccco1` (stereo not drawn) [Example 269, 4-(1-(2-Amino-4-pyrimidinyl)-2,3-dihydro-1H-indol-6-yl)-2-(2-furanyl)-3-butyn-2-ol] was run?
**A.** < 1 µM

**Q.** Which Ki does the source give for `Nc1ncc(Cl)c(-c2cn(CCN3CCOCC3)c3ccc(C#CC4(O)CCCCC4)cc23)n1` [Example 132, 1-(2-(3-(2-amino-5-chloropyrimidin-4-yl)-1-(2-morpholinoethyl)-1H-indol-5-yl)ethynyl)cyclohexanol] here?
**A.** < 1 µM

**Q.** Which Ki does the source give for `CC(O)(C#Cc1ccc2c(c1)N(c1nc(N)ncc1Cl)CC2)c1nc(CO)cs1` (stereo not drawn) [Example 35, 4-(1-(2-amino-5-chloropyrimidin-4-yl)indolin-6-yl)-2-(4-(hydroxymethyl)thiazol-2-yl)but-3-yn-2-ol] here?
**A.** 1 to 30 µM

Biological target: T1, NIK
Experiment: chemiluminescent (CL) assay for NIK IC50 determination
Assay type: biochemical
Conditions: truncated NIK (catalytic domain only), autophosphorylation; 50 nM biotinylated-NIK; 50 μM ATP; room temperature, 1 hour
Protocol: Two formats of biochemical assays are implemented: (1) chemiluminescent (CL) assay for NIK IC50 determination; (2) homogenous time resolved fluorescence (HTRF) assay for NIK Ki measurement. […] The NIK proteins are purified with baculovirus expression system and further biotinylated with N-hydroxysuccinamide biotin ester (Sigma). […] The reaction mixtures are then immobilized on a Streptavidin-coated plate (Pierce). […] For the HTRF assay, 10 nM of enzyme are incubated with compounds in the presence of 20, 100, 200, or 500 μM of ATP in a buffer with 20 mM of Hepes pH7.5, 20 mM of MgCl2, 0.2% of Tween 20 and 1 mM of DTT at room temperature for 2 hours.

**Q.** `Nc1ncc(Cl)c(-c2cn(C(=O)c3cccnc3)c3ccc(C#CC4(O)CCCC4)cc23)n1` [Example 123, (3-(2-amino-5-chloropyrimidin-4-yl)-5-(2-(1-hydroxycyclopentyl)ethynyl)-1H-indol-1-yl)(pyridin-3-yl)methanone] was tested. Which IC50 did it give?
**A.** < 1 µM

**Q.** How did the IC50 turn out when `COCCn1cc(-c2nc(N)ncc2Cl)c2cc(C#CC(C)(O)c3nccs3)ccc21` (stereo not drawn) [Example 115, 4-(3-(2-amino-5-chloropyrimidin-4-yl)-1-(2-methoxyethyl)-1H-indol-5-yl)-2-(thiazol-2-yl)but-3-yn-2-ol] was run?
**A.** < 1 µM

**Q.** For `COCCOc1cnc(N)nc1-c1c[nH]c2ccc(C#CC(O)(c3ccccc3)C(F)(F)F)cc12` (stereo not drawn) [Example 235, 4-(3-(2-Amino-5-(2-methoxyethoxy)-4-pyrimidinyl)-1H-indol-5-yl)-1,1,1-trifluoro-2-phenyl-3-butyn-2-ol], which IC50 is on record?
**A.** < 1 µM

**Q.** With `CC(O)(C#Cc1ccc2c(c1)N(c1nc(N)ncc1Cl)CC2)c1nccs1` (stereo not drawn) [Example 286, 4-(1-(2-Amino-5-chloro-4-pyrimidinyl)-2,3-dihydro-1H-indol-6-yl)-2-(1,3-thiazol-2-yl)-3-Butyn-2-ol] as the molecule, how does the IC50 read?
**A.** < 1 µM

**Q.** `O=C(c1ccc(Nc2nccc(N3CCc4ccc(C#CC5(O)CCCC5)cc43)n2)cc1)N1CCOCC1` [Example 263, 1-((1-(2-((4-(4-morpholinylcarbonyl)phenyl)amino)-4-pyrimidinyl)-2,3-dihydro-1H-indol-6-yl)ethynyl)cyclopentanol] was tested. Which IC50 did it give?
**A.** < 1 µM

**Q.** How did the IC50 turn out when `Nc1ncc(Cl)c(-c2cn(C3CCOC3)c3ccc(C#CC4(O)CCCC4)cc23)n1` (stereo not drawn) [Example 138, 1-(2-(3-(2-amino-5-chloropyrimidin-4-yl)-1-(tetrahydrofuran-3-yl)-1H-indol-5-yl)ethynyl)cyclopentanol] was run?
**A.** < 1 µM

**Q.** Which IC50 does the source give for `CN1CCC2(C1)CN(c1ccnc(N)n1)c1cc(C#CC3(O)CCCC3)ccc12` (racemic) [Example 189, (rac)-1-((1-(2-Amino-4-pyrimidinyl)-1′-methyl-1,2-dihydrospiro[indole-3,3′-pyrrolidin]-6-yl)ethynyl)cyclopentanol] here?
**A.** < 1 µM

**Q.** With `COCCn1cc(-c2nc(N)ncc2Cl)c2cc(C#CC3(O)CC[C@@H](C)C3)ccc21` (stereo partly drawn) [Example 140, (3R)-1-(2-(3-(2-amino-5-chloropyrimidin-4-yl)-1-(2-methoxyethyl)-1H-indol-5-yl)ethynyl)-3-methylcyclopentanol] as the molecule, how does the IC50 read?
**A.** < 1 µM

**Q.** For `CC1(CCO)CN(c2nc(N)ncc2Cl)c2cc(C#CC3(O)CCCC3)ccc21` (stereo not drawn) [Example 51, 1-((1-(2-amino-5-chloro-4-pyrimidinyl)-3-(2-hydroxyethyl)-3-methyl-2,3-dihydro-1H-indol-6-yl)ethynyl)cyclopentanol], which IC50 is on record?
**A.** < 1 µM
